≈ marks a conversion by molar mass, not a printed value. Where “and” joins values, the source holds several entries; their conditions need not be identical. Identical values can stand only once.
Experiments:
[1] = system: clinical isolates of P. acnes displaying antibiotic-sensitive phenotypes; assay: MIC against clinical isolates of P. acnes displaying antibiotic-sensitive phenotypes (Table 3); type: cell-based, Propionibacterium acnes; conditions: Cutibacterium acnes
Description: (§3) MIC50 and MIC90 means minimum inhibitory concentration capable of inhibiting 50% and 90%, respectively, of the strains tested.

[2] = system: clinical isolates of P. acnes displaying antibiotic-resistant phenotypes; assay: MIC against clinical isolates of P. acnes displaying antibiotic-resistant phenotypes (Table 2); type: cell-based, Propionibacterium acnes; conditions: for Cumul. %: resistant isolates
Description: as §3

[3] = system: Staphylococcus epidermidis; assay: MIC in vitro, Staphylococcus epidermidis (Table 1); type: cell-based; conditions: ATCC 12228, MH
Description: (§1) In particular, bacterial strains which should not be affected by topical administration of the anti-acne candidate compound are Staphylococcus aureus, Staphylococcus epidermidis, and Streptococcus pyogenes strains.
(§2) The tests have been carried out in comparison with antibiotic GE 2270 and four representative compounds (B, C, D and E) described in U.S. Pat. No. 5,599,791.

Staphylococcus aureus = assay: MIC in vitro, Staphylococcus aureus (Table 1); type: cell-based
Description: as §1, §2

Streptococcus pyogenes = assay: MIC in vitro, Streptococcus pyogenes (Table 1); type: cell-based; conditions: C 203, MH
Description: as §1, §2

Propionibacterium acne = assay: MIC in vitro, Propionibacterium acne strains (Table 1); type: cell-based, Propionibacterium acnes
Description: as §1, §2

Compound | MIC90 [1] | MIC50 ([2]; Cutibacterium acnes) | MIC90 ([2]; Cutibacterium acnes) | N° isolates ([2]; resistant isolates with MIC 512 μg/ml) | N° isolates ([2]; resistant isolates with MIC 1024 μg/ml) | N° isolates ([2]; resistant isolates with MIC 2048 μg/ml) | Cumul. % ([2]; cumulative at MIC 512 μg/ml) | Cumul. % ([2]; cumulative at MIC 1024 μg/ml) | Cumul. % ([2]; cumulative at MIC 2048 μg/ml) | MIC [3] | MIC (Staphylococcus aureus; MRSA, MH) | MIC (Staphylococcus aureus; Smith ATCC 19636, MH + 30% bovine serum) | MIC (Staphylococcus aureus; Smith ATCC 19636, Mueller Hinton (MH)) | MIC (Streptococcus pyogenes) | MIC (Propionibacterium acne; ATCC 6919, Wilkins Chalgren (WC)) | MIC (Propionibacterium acne; ATCC 6922, WC) | MIC (Propionibacterium acne; ATCC 25746, WC) | MIC (Propionibacterium acne; clinical isolate, WC (one table line per isolate)) | MIC (Propionibacterium acne; clinical isolate, medium not given)
CC[C@H]1OC(=O)[C@H](C)[C@@H](O[C@H]2C[C@@](C)(OC)[C@@H](O)[C@H](C)O2)[C@H](C)[C@@H](O[C@@H]2O[C@H](C)C[C@H](N(C)C)[C@H]2O)[C@](C)(O)C[C@@H](C)C(=O)[C@H](C)[C@@H](O)[C@]1(C)O [Erythromycin] | 0.125 µg/mL (≈ 0.17 µM) | 1020 µg/mL (≈ 1400 µM) | 2050 µg/mL (≈ 2790 µM) | 1 | 11 | 3 | 7% | 80% | 100% | – | – | – | – | – | – | – | – | – | –
GE 2270 | – | – | – | – | – | – | – | – | – | <0.125 µg/mL | <0.125 µg/mL | 0.25 µg/mL | 0.06 µg/mL | 0.25 µg/mL | <0.125 µg/mL | <0.125 µg/mL | <0.125 µg/mL | <0.125 µg/mL and 0.125 µg/mL | <0.125 µg/mL
